Reference: ChEMBL document CHEMBL5120749, “Human estrogen receptor α antagonists, part 2: Synthesis driven by rational design, in vitro antiproliferative, and in vivo anticancer evaluation of innovative coumarin-related antiestrogens as breast cancer suppressants” (Eur J Med Chem, 2022)

Tests used:
Estrogen receptor [1] = biological target: T1, Estrogen receptor (Homo sapiens, UniProt P03372)
T1 sequence (P03372 whole entry): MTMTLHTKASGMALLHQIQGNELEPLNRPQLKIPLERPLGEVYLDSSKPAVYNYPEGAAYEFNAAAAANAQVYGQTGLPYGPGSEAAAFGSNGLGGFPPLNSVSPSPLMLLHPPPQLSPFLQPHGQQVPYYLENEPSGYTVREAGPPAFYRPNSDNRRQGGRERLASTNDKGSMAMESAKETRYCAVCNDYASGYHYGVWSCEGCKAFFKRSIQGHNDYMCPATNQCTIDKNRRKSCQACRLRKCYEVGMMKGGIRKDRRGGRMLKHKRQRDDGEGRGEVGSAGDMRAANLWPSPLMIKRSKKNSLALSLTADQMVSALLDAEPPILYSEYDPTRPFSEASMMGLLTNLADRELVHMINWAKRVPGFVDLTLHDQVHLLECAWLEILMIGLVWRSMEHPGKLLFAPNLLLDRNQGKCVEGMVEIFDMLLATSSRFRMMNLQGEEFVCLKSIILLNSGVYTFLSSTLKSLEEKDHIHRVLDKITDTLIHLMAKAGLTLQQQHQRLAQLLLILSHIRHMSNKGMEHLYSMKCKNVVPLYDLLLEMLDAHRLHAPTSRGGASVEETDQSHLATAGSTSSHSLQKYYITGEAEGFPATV
Description: (§1) Antagonist activity at ERalpha (unknown origin)

Estrogen receptor beta [2] = biological target: T2, Estrogen receptor beta (Homo sapiens, UniProt Q92731)
T2 sequence (Q92731 whole entry): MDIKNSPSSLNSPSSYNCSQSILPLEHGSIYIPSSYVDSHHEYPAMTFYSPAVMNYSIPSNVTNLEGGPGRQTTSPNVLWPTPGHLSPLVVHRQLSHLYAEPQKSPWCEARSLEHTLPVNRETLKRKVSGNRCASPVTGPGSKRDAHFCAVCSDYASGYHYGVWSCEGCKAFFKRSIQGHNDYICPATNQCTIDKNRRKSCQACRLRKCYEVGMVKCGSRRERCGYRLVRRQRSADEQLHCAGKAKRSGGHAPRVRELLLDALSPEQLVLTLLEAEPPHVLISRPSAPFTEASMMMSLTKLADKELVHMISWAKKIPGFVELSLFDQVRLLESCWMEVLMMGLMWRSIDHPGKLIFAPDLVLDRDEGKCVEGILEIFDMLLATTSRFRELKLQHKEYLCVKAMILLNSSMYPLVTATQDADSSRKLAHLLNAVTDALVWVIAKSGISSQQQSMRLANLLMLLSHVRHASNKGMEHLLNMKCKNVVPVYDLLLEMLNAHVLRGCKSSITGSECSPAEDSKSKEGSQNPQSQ
Description: (§2) Antagonist activity at ERbeta (unknown origin)

Estrogen receptor [3] = biological target: T1, Estrogen receptor; remark: listed apart in the source
Description: Antagonist activity at ERalpha in human MCF7 cells assessed as downregulation of ERalpha

Progesterone receptor = biological target: T3, Progesterone receptor (Homo sapiens, UniProt P06401)
T3 sequence (P06401 whole entry): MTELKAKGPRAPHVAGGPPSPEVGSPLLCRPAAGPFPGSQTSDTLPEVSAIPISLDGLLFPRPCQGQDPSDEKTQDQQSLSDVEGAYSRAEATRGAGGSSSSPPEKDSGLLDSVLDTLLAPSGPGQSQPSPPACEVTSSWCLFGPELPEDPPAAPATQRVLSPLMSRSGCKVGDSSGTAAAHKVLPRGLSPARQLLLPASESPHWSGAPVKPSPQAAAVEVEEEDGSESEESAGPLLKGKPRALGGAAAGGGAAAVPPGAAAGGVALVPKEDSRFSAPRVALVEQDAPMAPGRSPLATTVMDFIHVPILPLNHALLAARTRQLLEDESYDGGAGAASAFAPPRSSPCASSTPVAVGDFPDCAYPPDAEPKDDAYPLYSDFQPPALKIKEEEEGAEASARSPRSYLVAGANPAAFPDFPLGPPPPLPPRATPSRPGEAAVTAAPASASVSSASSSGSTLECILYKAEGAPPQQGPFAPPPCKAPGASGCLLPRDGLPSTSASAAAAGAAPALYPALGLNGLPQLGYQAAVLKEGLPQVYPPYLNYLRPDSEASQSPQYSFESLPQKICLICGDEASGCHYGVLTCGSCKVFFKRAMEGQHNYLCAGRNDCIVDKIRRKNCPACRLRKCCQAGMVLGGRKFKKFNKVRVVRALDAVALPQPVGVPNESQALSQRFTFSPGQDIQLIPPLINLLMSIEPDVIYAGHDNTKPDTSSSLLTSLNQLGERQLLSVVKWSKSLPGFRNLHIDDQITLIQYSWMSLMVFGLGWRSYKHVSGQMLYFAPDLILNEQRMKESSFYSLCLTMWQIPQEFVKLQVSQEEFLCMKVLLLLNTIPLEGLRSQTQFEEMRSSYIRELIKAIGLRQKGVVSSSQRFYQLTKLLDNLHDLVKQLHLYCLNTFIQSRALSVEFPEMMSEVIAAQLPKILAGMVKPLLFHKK
Description: Antagonist activity at progesterone receptor in human MCF7 cells

[4] = biological target: T4, Estrogen receptor (Homo sapiens) (UniProt P03372); settings: filed as antagonist
T4 sequence (whole entry): T1 sequence (P03372 whole entry)
Description: as §1

Estrogen receptor beta [5] = biological target: T2, Estrogen receptor beta; settings: filed as antagonist
Description: as §2

[6] = biological target: T4, Estrogen receptor (Homo sapiens); settings: filed as antagonist; remark: listed apart in the source
Description: Relative binding affinity to ERalpha (unknown origin)

Estrogen receptor beta [7] = biological target: T2, Estrogen receptor beta; settings: filed as antagonist; remark: listed apart in the source
Description: Relative binding affinity to ERbeta (unknown origin)

MCF7 = assay: cells; settings: Homo sapiens
Description: Antiproliferative activity against human MCF7 cells

MDA-MB-231 = assay: cells; settings: Homo sapiens
Description: Antiproliferative activity against human MDA-MB-231 cells

MRC5 = assay: cells; settings: Homo sapiens
Description: Antiproliferative activity against human MRC5 cells

Ishikawa = assay: cells; settings: Homo sapiens
Description: Antiproliferative activity against human Ishikawa cells

in vivo [8] = settings: rat, po, 5 mg/kg
in vivo [9] = settings: rat, po, 50 mg/kg
physchem = settings: octanol/water
Description: (§3) Lipophilicity, logD of the compound by shake-flask method

[10] = octanol/water
Description: as §3

| Structure (SMILES) | IC50 (Estrogen receptor [1]) [nM] | IC50 (Estrogen receptor beta [2]) [nM] | IC50 (Estrogen receptor [3]) [nM] | IC50 (Progesterone receptor) [nM] | Ka [4] [nM] | Ka (Estrogen receptor beta [5]) [nM] | log(RBA) [6] | log(RBA) (Estrogen receptor beta [7]) | IC50 (MCF7) [nM] | IC50 (MDA-MB-231) [nM] | IC50 (MRC5) [nM] | IC50 (Ishikawa) [nM] | bioavailability (in vivo [8]) [%] | bioavailability (in vivo [9]) [%] | logD (physchem) | logD [10] |
| --- | --- | --- | --- | --- | --- | --- | --- | --- | --- | --- | --- | --- | --- | --- | --- | --- |
| Nc1ccc(-c2c(C(=O)c3ccc(OCCN4CC(C(=O)O)=CCC4=O)cc3)c3ccc(O)cc3[nH]c2=O)cc1 | 37 | 72.5 | > 100 | > 100 | 0.04 | 40.7 | 2.38 | 0.09 | 0.44 | 77 | > 100 | 0.41 | 88 | 91 | 1.86 | – |
| O=C(c1ccc(OCCN2CCCCC2)cc1)c1c(-c2ccc(O)cc2)sc2cc(O)ccc12 [RALOXIFENE] | – | – | – | – | – | 41.2 | – | 0.08 | 0.89 | 92.3 | – | 0.94 | 93 | 96 | – | 2.37 |
| Nc1ccc(-c2c(C(=O)c3ccc(OCCN4CC(C(=O)O)=CCC4=O)cc3)c3ccc(O)cc3oc2=O)cc1 | 39 | – | > 100 | > 100 | – | – | – | – | – | – | – | – | – | – | – | – |
| Cc1cc(N2Nc3c(c(=O)oc4cc(O)ccc34)-c3ccc(O)cc32)ccc1OCCN1CCC=C(C(=O)O)C1 | 144 | 45.4 | – | – | 32.3 | 25.5 | -0.21 | 0.29 | – | – | – | – | – | – | – | – |
| CNCCOc1ccc(N2Nc3cc(O)ccc3-c3c2c2ccc(O)cc2oc3=O)cc1 | 0.33 | – | > 100 | > 100 | – | – | – | – | – | – | – | – | – | – | – | – |
| O=C(COCN1CCCCC1)CN1Nc2c(c(=O)oc3cc(O)ccc23)-c2ccc(O)cc21 | 375 | 36.8 | – | – | 84.3 | 20.7 | -0.63 | 0.38 | – | – | – | – | – | – | – | – |
| Cc1cc(C(=O)CNc2c(-c3ccc(O)cc3)c(=O)oc3cc(O)ccc23)ccc1OCCN1CCC=C(C(=O)O)C1 | 0.19 | 102 | > 100 | > 100 | 0.04 | 57.6 | 2.67 | -0.06 | 0.25 | 91.8 | > 100 | 0.34 | 91 | 96 | 2.14 | – |
| CC(CN1CCCC2CCCNC21)OCC(=O)N1NC2c3ccc(O)cc3OCC2c2ccc(O)cc21 (configuration not stated) | 168 | – | – | – | – | – | – | – | – | – | – | – | – | – | – | – |
| O=C(c1ccc(OCCN2C=Cc3ccccc3C2)cc1)c1c(-c2ccc(O)cc2)oc(=O)c2cc(O)ccc12 | 0.71 | 42.7 | > 100 | > 100 | 0.16 | 24 | 2.1 | 0.32 | 0.8 | 41.7 | > 100 | 0.76 | – | – | – | – |
| O=C(COCN1CCCCC1)CN1Nc2cc(O)ccc2-c2c1c1ccc(O)cc1oc2=O | 0.76 | 86.4 | > 100 | > 100 | 0.17 | 48.5 | 2.07 | 0.01 | 1.03 | 41.8 | > 100 | 0.96 | – | – | – | – |
| Cc1cc(C(=O)C2=C(c3ccc(O)cc3)COc3cc(O)ccc32)ccc1OCCN1Cc2cccnc2C1 | 1.13 | – | > 100 | > 100 | – | – | – | – | – | – | – | – | – | – | – | – |
| Nc1ccc(-c2c(C(=O)c3ccc(OCCNS(=O)(=O)O)cc3)c3ccc(O)cc3oc2=O)cc1 | 0.39 | 79.5 | > 100 | > 100 | 0.08 | 44.7 | 2.36 | 0.05 | 0.45 | 75.7 | > 100 | 0.54 | 91 | 94 | 1.78 | – |
| O=C(c1ccc(OCCN2C(=O)CCC2=O)cc1)c1c(-c2ccc(O)cc2)oc(=O)c2cc(O)ccc12 | 0.75 | 5730 | > 100 | > 100 | 0.17 | 32.2 | 2.07 | 0.19 | 0.93 | 41.5 | > 100 | 0.89 | – | – | – | – |
| CC(CN1CCCC2CCCNC21)OCC(=O)N1Nc2cc(O)ccc2C2COc3cc(O)ccc3C21 (configuration not stated) | 0.67 | 67.1 | > 100 | > 100 | 0.15 | 37.7 | 2.12 | 0.12 | 0.73 | 51.5 | > 100 | 0.77 | – | – | – | – |
| CNCCOc1ccc(N2Nc3c(c(=O)oc4cc(O)ccc34)-c3ccc(O)cc32)cc1 | 161 | 28.8 | – | – | 36.1 | 16.2 | -0.26 | 0.49 | – | – | – | – | – | – | – | – |
| Cc1cc(C(=O)C2=C(c3ccc(O)cc3)COc3cc(O)ccc32)ccc1OCCN1C=Cc2cccnc2C1 | 1.05 | – | > 100 | > 100 | – | – | – | – | – | – | – | – | – | – | – | – |
| CC/C(=C(\c1ccc(O)cc1)c1ccc(OCCN(C)C)cc1)c1ccccc1 [AFIMOXIFENE] | – | – | – | > 100 | – | – | – | – | 1.2 | 36.8 | > 100 | 1.27 | 87 | 94 | 3.62 | – |
| Cc1cc(N2Nc3cc(O)ccc3-c3c2c2ccc(O)cc2oc3=O)ccc1OCCN1CCC=C(C(=O)O)C1 | – | 98.2 | – | > 100 | – | – | – | – | – | – | – | – | – | – | – | – |
